In brackets after ≈: the same amount, converted by molar mass. Where two headings read alike, the source gives them in different places. A value given as a limit tells only on which side of the number the result lay.

As usually defined, the IC50 is the concentration at which inhibition is half-maximal. The MIC is the lowest concentration that inhibits growth of the organism. The low end stands for a more susceptible organism, the high end for a less susceptible organism. A word on the GI50: it is the concentration that inhibits growth by half.

The subject of series [1] is Trypanosoma cruzi (Tulahuen C4). Put plainly: In vitro anti-T. cruzi activity (β-galactosidase CPRG colorimetric assay in VERO monolayer). The format is cell-based. To be noted: for IC50: Trypanosoma cruzi, TULAHUEN, Vero.
For a further series, the system named is L. braziliensis PER006. In words: Activity against macrophages infected with Leishmania amastigotes. The following applies: Leishmania braziliensis, Macrophage, read-out: IC50 L. braziliensis PER006.
A short description of series [2]: Cytotoxicity on VERO cells (MTT), anti-T. cruzi study. To be noted: African green monkey, VERO cells, Cytotoxicity VERO Lab B, Lab B.
Series [3] in a line: Toxicity to peritoneal macrophages (Trypan Blue count). Format: cell-based, BALB/C mouse. To be noted: BALB/C, mouse, Cytotoxicity Macrophages IC50.
The test system of series [4] is axenic amastigotes of L. amazonensis (strain MHOM/BR/76/LTB-012). To be noted: Table 8b.
A short description of series [5]: Cytotoxicity VERO cell (Table 6). To be noted: African green monkey, VERO cells.
In another series the test system is M. tuberculosis H37Rv. In words: Conventional aerobic (MABA) culture assay, luminescence MIC. Format: cell-based, Mycobacterium tuberculosis.
A further series has as its system VERO cells. Put plainly: Cell growth inhibition bioassay (sulforhodamine B). Format: cell-based, African Green Monkey. The following applies: Chlorocebus sabaeus, Vero; 48 h, SRB; read-out: GI50 in indicated cell line: VERO. In short, it runs like this:
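Cytotoxicity is read by sulforhodamine B colorimetry following the Skehan protocol; values are growth inhibition relative to solvent-only wells.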

The test system of another series is L. peruviana LCA08. Put plainly: Activity against macrophages infected with Leishmania amastigotes. The following applies: Leishmania peruviana, Macrophage, read-out: IC50 L. peruviana LCA08.
For another series, the system named is 3T3 cells. Put plainly: Cell growth inhibition bioassay (sulforhodamine B). To be noted: Mus musculus, NIH3T3; 48 h, SRB; read-out: GI50 in indicated cell line: 3T3. Format: cell-based, mouse. In short, it runs like this:
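Cells were exposed to compound alongside matched solvent controls, then stained with sulforhodamine B. Percent growth inhibition was calculated from dye absorbance against the control.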

Method for L. braziliensis PER006: A cloned line of Leishmania amazonensis(strain MHOM/BR/76/LTB-012) was used in all experiments. Axenically grown amastigote forms of L. amazonensis were maintained by weekly subpassages in MAA/20 medium (Sereno and Lemesre, Antimicrobial Agents and Chemotherapy 41, 972-976 (1997)) at 32±1° C. in 25 cm^2 tissue culture flasks. L. peruviana (strain MHOM/PE/LCA08) and L. braziliensis (strainMHOM/PE/PER006) were maintained in the promastigote stage in a biphasic medium (blood agar with 0.89% NaCl, pH 7.4) at 24° C., with sub-passage every 3 to 4 days. Promastigotes (5×10^6 parasites) were then transferred to 25 cm2 tissue culture flasks containing 5 ml of M199 medium supplemented with 10% foetal bovine serum (FBS), pH 7.4. After 4 days, exponential phase promastigotes were centrifuged for 10 minutes at 1500 g and 4° C. The supernatant was discarded and replaced by fresh M199 medium supplemented with 20% FBS, pH 5.5. Axenic amastigotes transformation was then induced by increasing the temperature to 34° C. and incubating for 96 h (Teixeira et al., Parasitology Research 88, 963-968 (2002)).
Extracted cells were immediately deposited on sterile 4×4 mm cover glasses and placed in each well of a 96-well plate. Plates were incubated for 24 h at 37° C., 5% CO2 to allow cell adhesion (Castillo et al, Journal of Ethnopharmacology 112, 410-414 (2007)). Pre-warmed complete M199 medium was used twice to remove non-adherent cells. A neutral red method (Fautz et al., Mutation Research 253, 173-179 (1991)) was employed to determine cell concentration. Approximately 7×10^4 viable cells were deposited in each well for adhesion.
Infection of macrophages by amastigotes was determined as follows. […] Twelve hours after infection, a solution of the compounds to be tested was added to the cultures at various concentrations and maintained at 37° C. in 5% CO2 for a further forty-eight hours more. The plates were fixed with methanol and stained with 10% Giemsa stain. The percentage of infected macrophages was determined microscopically at 100 times magnification. The number of intracellular amastigotes was determined in 300 cells. Following Delorenzi et al. Antimicrobial Agents and Chemotherapy, 45, 1349-1354 (2001)) the percentage of infection rate (% IR) of each culture was calculated as follows: % IR=100−(infection rate of the treated culture/infection rate of the untreated culture)×100.
All experiments were performed in triplicate. ANOVA was used to test for statistical significance of differences (Epi-Info, Statview student program). The total parasite burden was calculated as a mean number of amastigotes per cells multiplied by the number of infected macrophages.

With `C(=N/Nc1ncnc2sc3c(c12)CCCC3)/c1ccccn1` [II-21], the “Selectivity Index Lab B” value in [1] (IC50, VERO/IC50, T. cruzi, Lab B) was determined as 0.1. In addition, the IC50 in series [1] (Lab A, read-out: T. cruzi IC50 Lab A) is 0.1 µg/mL (≈ 0.323 µM); in series [1] (Lab B, read-out: T. cruzi IC50 Lab B), 1.2 µg/mL (≈ 3.88 µM); with L. braziliensis PER006 it was 0.19 µg/mL (≈ 0.614 µM); in [2] it was below 0.08 µg/mL; in series [5], 10.8 µg/mL (≈ 34.9 µM); with L. peruviana LCA08, 0.2 µg/mL (≈ 0.646 µM). In series [3], this molecule displayed a concentration for half-maximal inhibition (IC50) at 48 h of 2 µM. The “Selectivity Index” value in series [4] is given as 13.0. Besides, inhibition of growth against M. tuberculosis H37Rv (Mycobacterium tuberculosis, 168 h, aerobic, 7 days, H37Rv) (MIC) required 44.9 µg/mL (≈ 145 µM). In the series with M. tuberculosis H37Rv (VERO vs MABA MIC), the “Selectivity Index H37Rv” value amounted to 0.2. Moreover, the GI50 worked out at 0.156 µg/mL (≈ 0.504 µM) with VERO cells and 0.013 µg/mL (≈ 0.042 µM) in the series on 3T3 cells.

These data come from patent US9061984B2 (University of Louisville Research Foundation, Inc., priority 2008, dated 2015).
